Laboratory results taken from patent EP4817428A1, “SWEETNESS ENHANCER CONTAINING ERGOTHIONEINE AS ACTIVE INGREDIENT, AND FOOD OR BEVERAGE PRODUCT CONTAINING SAME” (Kikkoman Corporation, priority 2023, dated 2025).
Read-outs that look alike come from different tables or passages of the source.

Columns and labels:
[1] = Test 1: sensory evaluation by expert panel, selection of sucrose sample of equivalent sweetness; format: in vivo; settings: 2% sucrose sample containing 60 ppm ERG; all the five panelists
Description: Sucrose was added to pure water to prepare sucrose samples having six concentrations of 0%, 1%, 1.5%, 2%, 2.5%, and 3%; and as a seventh sample, a sample in which purified ergothioneine (purity: 99.5% or more, Tetrahedron) was added to 2% sucrose to a final concentration of 60 ppm was prepared.
The sweetness was evaluated by a sensory evaluation by an expert panel consisting of five trained sweetness-sensitive subjects. The panel of five experts was asked to select a sample having an equivalent sweetness from among the 1st to 6th sucrose samples (the concentration was not disclosed to the panel) regarding the sweetness of the 7th 2% sucrose sample containing 60 ppm ERG. After tasting each sample and before tasting the next sample, the mouth was completely rinsed with water at room temperature.

[2] = format: in vivo; settings: ERG added to water to a final concentration of 60 ppm; all the five panelists
Description: In the same manner as in Test 1, sucrose samples having six concentrations of 0%, 1%, 1.5%, 2%, 2.5%, and 3%, and as a seventh sample, a sample in which ergothioneine was added to water to a final concentration of 60 ppm were prepared. A drinking test by the same expert panel of five as in Test 1 was conducted, and after tasting each sample and before tasting the next sample, the mouth was completely rinsed with water at room temperature, and sweetness was sensorially evaluated. The panel of five experts was asked to select a sample having an equivalent sweetness from among the 1st to 6th sucrose samples (the concentration was not disclosed to the panel) regarding the sweetness of the 7th sample.

[3] = Test 5: sensory evaluation, selection of glucose sample of equivalent sweetness; format: in vivo; settings: 15% glucose sample containing 60 ppm ERG
Description: Glucose was added to pure water to prepare glucose samples having six concentrations of 0%, 13%, 14%, 15%, 16%, and 17%; and as a seventh sample, a sample in which ergothioneine was added to 15% glucose to a final concentration of 60 ppm was prepared.
Sweetness was sensorially evaluated by the same expert panel of five trained sweetness-sensitive subjects as in Test 1. The panel of five experts was asked to select a sample having an equivalent sweetness from among the 1st to 6th glucose samples (the concentration was not disclosed to the panel) regarding the sweetness of the 7th 15% glucose sample containing 60 ppm ERG.

[4] = format: in vivo
Text: (§1) Evaluation results of sweetness of test product compared with control • ∘: Sweetness was enhanced compared to the control. • ◇: Sweetness was similar to that of the control.
Pairs combining a control 50% glucose sample to which ergothioneine was not added and a 50% glucose sample containing ergothioneine at each concentration were presented to the expert panel of four, and the panel evaluated which sample of the presented pair was perceived to be sweeter by a paired comparison test.
The same test as in the 50% glucose solution of (1) described above was conducted on a 10% glucose solution using the samples (ERG0 to 20) shown in Table 6.

[5] = Test 7: sensory evaluation, selection of fructose sample of equivalent sweetness; format: in vivo; settings: 5% fructose sample containing 60 ppm ERG
Description: Fructose was added to pure water to prepare fructose samples having six concentrations of 0%, 4.5%, 5%, 5.25%, 5.5%, and 6%; and as a seventh sample, a sample in which ergothioneine was added to 5% fructose to a final concentration of 60 ppm was prepared.
Sweetness was sensorially evaluated by the same expert panel of five trained sweetness-sensitive subjects as in Test 1. The panel of five experts was asked to select a sample having an equivalent sweetness from among the 1st to 6th fructose samples (the concentration was not disclosed to the panel) regarding the sweetness of the 7th 5% fructose sample containing 60 ppm ERG.

[6] = format: in vivo; remark: listed apart in the source
Description: as §1
Samples (ERG0 to 10) were prepared by adding ergothioneine to 20% fructose samples to final concentrations of 0.5 ppm, 1 ppm, 3 ppm, 5 ppm, and 10 ppm.
A drinking test by a panel of four experts was conducted on 20% fructose samples to which ERG was added at each concentration (the concentration was not disclosed to the panel), using a 20% fructose sample to which no ergothioneine was added as a control, and sweetness was sensorially evaluated.
In addition, samples (ERG0.5 to 900) were prepared by adding ergothioneine to 20% fructose samples to final concentrations of 0.5 ppm, 5 ppm, 10 ppm, 20 ppm, 40 ppm, 60 ppm, 80 ppm, 100 ppm, 200 ppm, 400 ppm, and 900 ppm.
Pairs combining 20% fructose samples containing different concentrations of ERG (for example, a pair of ERG 20 ppm and 40 ppm) were presented to the expert panel, and the panel evaluated which sample of the presented pair was perceived to be sweeter by a paired comparison test.

[7] = format: in vivo; settings: 50% trehalose samples
Description: as §1
In the following Test 9, sensory evaluation was performed by a panel of three experts in the same paired comparison test as in Tests 3, 5, and 7.
Samples were prepared by adding ergothioneine to a 50% trehalose sample to final concentrations of 0.5 ppm, 1 ppm, 3 ppm, 5 ppm, 10 ppm, and 20 ppm (Table 11, ERG0 to 20).
For the 50% trehalose samples to which ERG was added at each concentration (the concentration was not disclosed to the panel), pairs combining a control 50% trehalose sample and a 50% trehalose sample containing ergothioneine at each concentration were presented to the expert panel, and the panel evaluated which sample of the presented pair was perceived to be sweeter by a paired comparison test.

[8] = Test 9 (7): paired comparison test of sweetness, 12.5% glycine sample; format: in vivo; settings: 12.5% glycine samples
Description: Pairs combining a control 12.5% glycine sample and a 12.5% glycine sample containing ERG at each concentration were presented, and the panel evaluated which sample of the presented pair was perceived to be sweeter by a paired comparison test.

[9] = format: in vivo; settings: specially selected whole soybean soy sauce
Description: as §1
Soy sauces were prepared by adding ergothioneine to a commercially available specially selected whole soybean soy sauce (Kikkoman Corporation) to addition concentrations of 10 ppm, 20 ppm, and 50 ppm (EGR10, 20, 50).
(§2) A drinking test by a panel of three experts was conducted on the soy sauce to which ERG was added at each concentration (the concentration was not disclosed to the panel), using a soy sauce to which no ergothioneine was added (ERG0) as a control, and the sweetness was sensorially evaluated by a paired comparison test.

[10] = format: in vivo; settings: amakuchi soy sauce
Description: as §1, §2
The same test as in (1) described above was conducted by adding ERG to a commercially available amakuchi soy sauce (Golden Murasaki, Fundokin Shoyu).

## C[N+](C)(C)[C@@H](Cc1c[nH]c(=S)[nH]1)C(=O)[O-] [ERG, Ergothioneine]
[1]
  sucrose solution of equivalent sweetness: 2.5%
[2]
  sucrose solution of equivalent sweetness: 0%
[3]; three of the five panelists
  glucose solution of equivalent sweetness: 16%
[3]; two of the five panelists
  glucose solution of equivalent sweetness: 17%
[4]; 10% glucose
  ERG concentration at which the sweetness-enhancing effect became constant: 60 ppm
[4]; 10% glucose solution
  ERG added at which all the panelists evaluated that the sweetness was enhanced: ≥ 0.5 ppm
  ERG having a sweetness-enhancing effect, based on the glucose content: ≥ 0.0005 % by weight
[5]; three of the five panelists
  fructose solution of equivalent sweetness: 5.5%
[5]; two of the five panelists
  fructose solution of equivalent sweetness: 5.25%
[6]; 20% fructose
  ERG concentration at which the sweetness-enhancing effect became constant: 80 ppm
[6]; 20% fructose samples
  ERG added at which all the panelists evaluated that the sweetness was enhanced: ≥ 0.5 ppm
  ERG having a sweetness-enhancing effect, based on the fructose content: ≥ 0.0003 % by weight
[7]
  ERG added at which all the panelists evaluated that the sweetness was enhanced: ≥ 0.5 ppm
  ERG having a sweetness-enhancing effect, based on the trehalose content: ≥ 0.0001 % by weight
[8]
  ERG added at which all the panelists evaluated that the sweetness was enhanced: ≥ 0.5 ppm
  ERG having a sweetness-enhancing effect, based on the glycine content: ≥ 0.0004 % by weight
[9]
  ERG added at which all the panelists evaluated that the sweetness was enhanced: ≥ 10 ppm
[10]
  ERG added at which all the panelists evaluated that the sweetness was enhanced: ≥ 10 ppm
